Assay results from patent US20250098679A1, “HERBICIDAL PYRIDONE DERIVATIVES” (SYNGENTA CROP PROTECTION AG, priority 2021, published 2025).

Key:
Type in all cases: in vivo
Settings in all cases: evaluated after 13 days
[1] = test system: Echinochloa crus-galli (ECHCG); test: Post-emergence Test, Echinochloa crus-galli (ECHCG); design: key to percentage damage caused to the plant, ECHCG (five-point scale): 5=81-100%, 4=61-80%, 3=41-60%, 2=21-40%, 1=0-20% damage
Outline: (§1)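 Application was a spray of acetone/water (50:50) with 0.5% Tween 20 onto pots of test species sown in standard soil. Unless otherwise stated, the rate was 1000 g/ha. After 13 days under glasshouse conditions (24/16 °C, 65% humidity), injury was scored from 1 (0-20%) to 5 (81-100%).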

Setaria faberi (SETFA) = test: Post-emergence Test, Setaria faberi (SETFA); design: key to percentage damage caused to the plant, SETFA (five-point scale): 5=81-100%, 4=61-80%, 3=41-60%, 2=21-40%, 1=0-20% damage
Outline: as §1

[2] = test system: Amaranthus retoflexus (AMARE); test: Post-emergence Test, Amaranthus retoflexus (AMARE); design: key to percentage damage caused to the plant, AMARE (five-point scale): 5=81-100%, 4=61-80%, 3=41-60%, 2=21-40%, 1=0-20% damage
Outline: as §1

Zea mays (ZEAMX) = test: Post-emergence Test, Zea mays (ZEAMX); design: key to percentage damage caused to the plant, ZEAMX (five-point scale): 5=81-100%, 4=61-80%, 3=41-60%, 2=21-40%, 1=0-20% damage
Outline: as §1

[3] = test system: Amaranthus palmeri (AMAPA); test: Post-emergence Test, Amaranthus palmeri (AMAPA); design: key: 5=81-100%, 4=61-80%, 3=41-60%, 2=21-40%, 1=0-20% damage
Outline: as §1

[4] = test system: Ipomoea hederacea (IPOHE); test: Post-emergence Test, Ipomoea hederacea (IPOHE); design: key to percentage damage caused to the plant, IPOHE (five-point scale): 5=81-100%, 4=61-80%, 3=41-60%, 2=21-40%, 1=0-20% damage
Outline: as §1

CCn1c(Cn2cnc(C(=O)OC)c2C(=O)OC)cc(=O)c(C(=O)O)c1-c1ccc(Cl)c(Cl)c1 [Compound 111, 6-[[4,5-bis(methoxycarbonyl)imidazol-1-yl]methyl]-2-(3,4-dichlorophenyl)-1-ethyl-4-oxo-pyridine-3-carboxylic acid]
percentage damage caused to the plant, ECHCG (five-point scale) ([1]; 1000 g/ha): 2 (2=21-40%)
percentage damage caused to the plant, SETFA (five-point scale) (Setaria faberi (SETFA); 1000 g/ha): 1 (1=0-20%)
percentage damage caused to the plant, AMARE (five-point scale) ([2]; 1000 g/ha): 1 (1=0-20%)
percentage damage caused to the plant, ZEAMX (five-point scale) (Zea mays (ZEAMX); 1000 g/ha): 0
percentage damage caused to the plant, AMAPA (five-point scale) ([3]; 1000 g/ha): 1 (1=0-20%)
percentage damage caused to the plant, IPOHE (five-point scale) ([4]; 1000 g/ha): 0

CCn1c(Cn2cnc(C#N)c2C#N)cc(=O)c(C(=O)O)c1-c1ccc(Cl)c(Cl)c1 [Compound 113, 2-(3,4-dichlorophenyl)-6-[(4,5-dicyanoimidazol-1-yl)methyl]-1-ethyl-4-oxo-pyridine-3-carboxylic acid]
percentage damage caused to the plant, ECHCG (five-point scale) ([1]; 1000 g/ha): 1 (1=0-20%)
percentage damage caused to the plant, SETFA (five-point scale) (Setaria faberi (SETFA); 1000 g/ha): 1 (1=0-20%)
percentage damage caused to the plant, AMARE (five-point scale) ([2]; 1000 g/ha): 1 (1=0-20%)
percentage damage caused to the plant, ZEAMX (five-point scale) (Zea mays (ZEAMX); 1000 g/ha): 1 (1=0-20%)
percentage damage caused to the plant, AMAPA (five-point scale) ([3]; 1000 g/ha): 1 (1=0-20%)
percentage damage caused to the plant, IPOHE (five-point scale) ([4]; 1000 g/ha): 0

CCn1c(Cn2ccc(C(F)(F)F)n2)cc(=O)c(C(=O)O)c1-c1ccc(Cl)c(S(C)(=O)=O)c1 [Compound 116, 2-(4-chloro-3-methylsulfonyl-phenyl)-1-ethyl-4-oxo-6-[[3-(trifluoromethyl)pyrazol-1-yl]methyl]pyridine-3-carboxylic acid]
percentage damage caused to the plant, ECHCG (five-point scale) ([1]; 1000 g/ha): 1 (1=0-20%)
percentage damage caused to the plant, SETFA (five-point scale) (Setaria faberi (SETFA); 1000 g/ha): 1 (1=0-20%)
percentage damage caused to the plant, AMARE (five-point scale) ([2]; 1000 g/ha): 1 (1=0-20%)
percentage damage caused to the plant, ZEAMX (five-point scale) (Zea mays (ZEAMX); 1000 g/ha): 1 (1=0-20%)
percentage damage caused to the plant, AMAPA (five-point scale) ([3]; 1000 g/ha): 1 (1=0-20%)
percentage damage caused to the plant, IPOHE (five-point scale) ([4]; 1000 g/ha): 1 (1=0-20%)

CCn1c(Cn2cnc(Cl)c2Cl)cc(=O)c(C(=O)O)c1-c1ccc(Cl)c(Cl)c1 [Compound 126, 6-[(4,5-dichloroimidazol-1-yl)methyl]-2-(3,4-dichlorophenyl)-1-ethyl-4-oxo-pyridine-3-carboxylic acid]
percentage damage caused to the plant, ECHCG (five-point scale) ([1]; 250 g/Ha): 1 (1=0-20%)
percentage damage caused to the plant, ECHCG (five-point scale) ([1]; 1000 g/ha): 0
percentage damage caused to the plant, SETFA (five-point scale) (Setaria faberi (SETFA); 250 g/Ha): 0
percentage damage caused to the plant, SETFA (five-point scale) (Setaria faberi (SETFA); 1000 g/ha): 0
percentage damage caused to the plant, AMARE (five-point scale) ([2]; 250 g/Ha): 0
percentage damage caused to the plant, AMARE (five-point scale) ([2]; 1000 g/ha): 0
percentage damage caused to the plant, ZEAMX (five-point scale) (Zea mays (ZEAMX); 250 g/Ha): 0
percentage damage caused to the plant, ZEAMX (five-point scale) (Zea mays (ZEAMX); 1000 g/ha): 1 (1=0-20%)
percentage damage caused to the plant, AMAPA (five-point scale) ([3]; 250 g/Ha): 0
percentage damage caused to the plant, AMAPA (five-point scale) ([3]; 1000 g/ha): 1 (1=0-20%)
percentage damage caused to the plant, IPOHE (five-point scale) ([4]; 250 g/Ha): 0
percentage damage caused to the plant, IPOHE (five-point scale) ([4]; 1000 g/ha): 0

CCn1c(Cn2ccc(C(F)(F)F)n2)cc(=O)c(C(=O)O)c1-c1ccc(S(C)(=O)=O)c(Cl)c1 [Compound 129, 2-(3-chloro-4-methylsulfonyl-phenyl)-1-ethyl-4-oxo-6-[[3-(trifluoromethyl)pyrazol-1-yl]methyl]pyridine-3-carboxylic acid]
percentage damage caused to the plant, ECHCG (five-point scale) ([1]; 1000 g/ha): 1 (1=0-20%)
percentage damage caused to the plant, SETFA (five-point scale) (Setaria faberi (SETFA); 1000 g/ha): 0
percentage damage caused to the plant, AMARE (five-point scale) ([2]; 1000 g/ha): 0
percentage damage caused to the plant, ZEAMX (five-point scale) (Zea mays (ZEAMX); 1000 g/ha): 1 (1=0-20%)
percentage damage caused to the plant, AMAPA (five-point scale) ([3]; 1000 g/ha): 0
percentage damage caused to the plant, IPOHE (five-point scale) ([4]; 1000 g/ha): 0

CCn1c(Cn2ccc(C(F)(F)F)n2)cc(=O)c(C(=O)O)c1-c1ccc(N)c(Cl)c1 [Compound 133, 2-(4-amino-3-chloro-phenyl)-1-ethyl-4-oxo-6-[[3-(trifluoromethyl)pyrazol-1-yl]methyl]pyridine-3-carboxylic acid]
percentage damage caused to the plant, ECHCG (five-point scale) ([1]; 250 g/Ha): 0
percentage damage caused to the plant, ECHCG (five-point scale) ([1]; 1000 g/ha): 0
percentage damage caused to the plant, SETFA (five-point scale) (Setaria faberi (SETFA); 250 g/Ha): 1 (1=0-20%)
percentage damage caused to the plant, SETFA (five-point scale) (Setaria faberi (SETFA); 1000 g/ha): 0
percentage damage caused to the plant, AMARE (five-point scale) ([2]; 250 g/Ha): 1 (1=0-20%)
percentage damage caused to the plant, AMARE (five-point scale) ([2]; 1000 g/ha): 1 (1=0-20%)
percentage damage caused to the plant, ZEAMX (five-point scale) (Zea mays (ZEAMX); 250 g/Ha): 0
percentage damage caused to the plant, ZEAMX (five-point scale) (Zea mays (ZEAMX); 1000 g/ha): 0
percentage damage caused to the plant, AMAPA (five-point scale) ([3]; 250 g/Ha): 1 (1=0-20%)
percentage damage caused to the plant, AMAPA (five-point scale) ([3]; 1000 g/ha): 1 (1=0-20%)
percentage damage caused to the plant, IPOHE (five-point scale) ([4]; 250 g/Ha): 0
percentage damage caused to the plant, IPOHE (five-point scale) ([4]; 1000 g/ha): 1 (1=0-20%)

CCn1c(Cn2nc(C)cc2OC(C)(C)C)cc(=O)c(C(=O)O)c1-c1ccc(Cl)c(Cl)c1 [Compound 152, 6-[(5-tert-butoxy-3-methyl-pyrazol-1-yl)methyl]-2-(3,4-dichlorophenyl)-1-ethyl-4-oxo-pyridine-3-carboxylic acid]
percentage damage caused to the plant, ECHCG (five-point scale) ([1]; 1000 g/ha): 1 (1=0-20%)
percentage damage caused to the plant, SETFA (five-point scale) (Setaria faberi (SETFA); 1000 g/ha): 0
percentage damage caused to the plant, AMARE (five-point scale) ([2]; 1000 g/ha): 1 (1=0-20%)
percentage damage caused to the plant, ZEAMX (five-point scale) (Zea mays (ZEAMX); 1000 g/ha): 1 (1=0-20%)
percentage damage caused to the plant, AMAPA (five-point scale) ([3]; 1000 g/ha): 1 (1=0-20%)
percentage damage caused to the plant, IPOHE (five-point scale) ([4]; 1000 g/ha): 0

CCn1c(Cn2ccc(NC(C)=O)n2)cc(=O)c(C(=O)O)c1-c1ccc(Cl)c(Cl)c1 [Compound 154, 6-[(3-acetamidopyrazol-1-yl)methyl]-2-(3,4-dichlorophenyl)-1-ethyl-4-oxo-pyridine-3-carboxylic acid]
percentage damage caused to the plant, ECHCG (five-point scale) ([1]; 250 g/Ha): 0
percentage damage caused to the plant, ECHCG (five-point scale) ([1]; 1000 g/ha): 0
percentage damage caused to the plant, SETFA (five-point scale) (Setaria faberi (SETFA); 250 g/Ha): 0
percentage damage caused to the plant, SETFA (five-point scale) (Setaria faberi (SETFA); 1000 g/ha): 0
percentage damage caused to the plant, AMARE (five-point scale) ([2]; 250 g/Ha): 0
percentage damage caused to the plant, AMARE (five-point scale) ([2]; 1000 g/ha): 0
percentage damage caused to the plant, ZEAMX (five-point scale) (Zea mays (ZEAMX); 250 g/Ha): 1 (1=0-20%)
percentage damage caused to the plant, ZEAMX (five-point scale) (Zea mays (ZEAMX); 1000 g/ha): 1 (1=0-20%)
percentage damage caused to the plant, AMAPA (five-point scale) ([3]; 250 g/Ha): 0
percentage damage caused to the plant, AMAPA (five-point scale) ([3]; 1000 g/ha): 0
percentage damage caused to the plant, IPOHE (five-point scale) ([4]; 250 g/Ha): 0
percentage damage caused to the plant, IPOHE (five-point scale) ([4]; 1000 g/ha): 0

C/C=C/C(=O)Nc1ccn(Cc2cc(=O)c(C(=O)O)c(-c3ccc(Cl)c(Cl)c3)n2CC)n1 [Compound 155, 6-[[3-[[(E)-but-2-enoyl]amino]pyrazol-1-yl]methyl]-2-(3,4-dichlorophenyl)-1-ethyl-4-oxo-pyridine-3-carboxylic acid]
percentage damage caused to the plant, ECHCG (five-point scale) ([1]; 250 g/Ha): 1 (1=0-20%)
percentage damage caused to the plant, ECHCG (five-point scale) ([1]; 1000 g/ha): 1 (1=0-20%)
percentage damage caused to the plant, SETFA (five-point scale) (Setaria faberi (SETFA); 250 g/Ha): 1 (1=0-20%)
percentage damage caused to the plant, SETFA (five-point scale) (Setaria faberi (SETFA); 1000 g/ha): 0
percentage damage caused to the plant, AMARE (five-point scale) ([2]; 250 g/Ha): 1 (1=0-20%)
percentage damage caused to the plant, AMARE (five-point scale) ([2]; 1000 g/ha): 0
percentage damage caused to the plant, ZEAMX (five-point scale) (Zea mays (ZEAMX); 250 g/Ha): 0
percentage damage caused to the plant, ZEAMX (five-point scale) (Zea mays (ZEAMX); 1000 g/ha): 0
percentage damage caused to the plant, AMAPA (five-point scale) ([3]; 250 g/Ha): 1 (1=0-20%)
percentage damage caused to the plant, AMAPA (five-point scale) ([3]; 1000 g/ha): 1 (1=0-20%)
percentage damage caused to the plant, IPOHE (five-point scale) ([4]; 250 g/Ha): 1 (1=0-20%)
percentage damage caused to the plant, IPOHE (five-point scale) ([4]; 1000 g/ha): 0

CCn1c(Cn2ccc(O)n2)cc(=O)c(C(=O)O)c1-c1ccc(Cl)c(Cl)c1 [Compound 167, 2-(3,4-dichlorophenyl)-1-ethyl-6-[(3-hydroxypyrazol-1-yl)methyl]-4-oxo-pyridine-3-carboxylic acid]
percentage damage caused to the plant, ECHCG (five-point scale) ([1]; 1000 g/ha): 0
percentage damage caused to the plant, SETFA (five-point scale) (Setaria faberi (SETFA); 1000 g/ha): 0
percentage damage caused to the plant, AMARE (five-point scale) ([2]; 1000 g/ha): 0
percentage damage caused to the plant, ZEAMX (five-point scale) (Zea mays (ZEAMX); 1000 g/ha): 0
percentage damage caused to the plant, AMAPA (five-point scale) ([3]; 1000 g/ha): 1 (1=0-20%)
percentage damage caused to the plant, IPOHE (five-point scale) ([4]; 1000 g/ha): 0
